Experimental data taken from ChEMBL document CHEMBL6096733, “Structure-Based Virtual Screening Identifies 2-Arylthiazole-4-Carboxylic Acids as a Novel Class of Nanomolar Affinity Ligands for the CaMKIIα Hub Domain” (J Med Chem, 2025).
Blank lines part the entries; values can stand above or below the compound they belong to.

Assays:
[1] = target: T1, Calcium/calmodulin-dependent protein kinase type II subunit alpha (Rattus norvegicus, UniProt P11275); assay: Inhibition of […] binding to CaMKIIalpha in rat brain cortical membrane assessed as inhibition constant incubated for 1 hrs by TopCount NXT microplate scintillation counter analysis; type: cell membranes, Cortex
T1 sequence (P11275 whole entry): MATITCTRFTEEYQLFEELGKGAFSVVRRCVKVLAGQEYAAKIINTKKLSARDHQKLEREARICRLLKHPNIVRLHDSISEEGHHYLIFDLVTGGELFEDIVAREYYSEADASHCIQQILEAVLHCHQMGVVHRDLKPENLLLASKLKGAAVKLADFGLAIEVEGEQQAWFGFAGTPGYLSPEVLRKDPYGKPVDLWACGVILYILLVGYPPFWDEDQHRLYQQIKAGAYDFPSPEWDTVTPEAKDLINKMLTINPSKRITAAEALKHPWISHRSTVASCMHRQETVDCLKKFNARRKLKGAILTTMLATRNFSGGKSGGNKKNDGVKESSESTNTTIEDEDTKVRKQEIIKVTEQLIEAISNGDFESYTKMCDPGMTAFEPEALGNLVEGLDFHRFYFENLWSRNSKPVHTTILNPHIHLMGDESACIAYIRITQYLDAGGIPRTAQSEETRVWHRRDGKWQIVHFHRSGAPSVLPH

[2] = target: T1, Calcium/calmodulin-dependent protein kinase type II subunit alpha; assay: Inhibition of [3H]NCS-382 binding to CaMKIIalpha in rat brain cortical membrane assessed as inhibition constant incubated for 1 hrs by TopCount NXT microplate scintillation counter analysis; type: cell membranes, Cortex
[3] = Prodrug conversion in mouse plasma assessed as 2-(2,6-dichlorophenyl)thiazole-4-carboxylic acid release at 10 mg/kg, po measured after 0.5 hrs by LC-MS/MS analysis; type: ADME, organism-based; conditions: in vivo
[4] = Metabolic stability in pooled human plasma assessed as parent compound remaining at 20 uM measured immediately by LC-MS analysis; type: ADME, cell-free; conditions: read-out: Stability
[5] = Prodrug conversion in mouse brain assessed as 2-(2,6-dichlorophenyl)thiazole-4-carboxylic acid release at 10 mg/kg, po measured after 0.5 hrs by LC-MS/MS analysis; type: ADME, organism-based; conditions: in vivo
[6] = Metabolic stability in pooled human plasma assessed as parent compound remaining at 20 uM measured after 60 mins by LC-MS analysis; type: ADME, cell-free; conditions: read-out: Stability
[7] = Metabolic stability in pooled CD-1 mouse liver microsomes assessed as parent compound remaining at 10 uM measured after 15 mins in presence of NADPH regeneration system by LC-MS analysis; type: ADME, Microsome; conditions: read-out: Stability
[8] = Metabolic stability in pooled human plasma assessed as parent compound remaining at 20 uM measured after 30 mins by LC-MS analysis; type: ADME, cell-free; conditions: read-out: Stability
[9] = Metabolic stability in pooled CD-1 mouse liver microsomes assessed as parent compound remaining at 10 uM measured after 30 mins in presence of NADPH regeneration system by LC-MS analysis; type: ADME, Microsome; conditions: read-out: Stability
[10] = Chemical stability of compound in phosphate buffer solution at pH 7.4; type: physicochemical
[11] = Metabolic stability in pooled human plasma assessed as parent compound remaining at 20 uM measured after 120 mins by LC-MS analysis; type: ADME, cell-free; conditions: read-out: Stability
[12] = Metabolic stability in pooled CD-1 mouse liver microsomes assessed as parent compound remaining at 10 uM measured immediately in presence of NADPH regeneration system by LC-MS analysis; type: ADME, Microsome; conditions: read-out: Stability
[13] = Metabolic stability in pooled CD-1 mouse liver microsomes assessed as parent compound remaining at 10 uM measured after 60 mins in presence of NADPH regeneration system by LC-MS analysis; type: ADME, Microsome; conditions: read-out: Stability
[14] = Ratio of drug concentration in mouse brain to plasma at 10 mg/kg, ip measured after 0.5 hrs by LC-MS/MS analysis; type: ADME, organism-based; conditions: brain and plasma, read-out: BPR
BCRP [15] = assay: Apparent permeability across basolateral to apical side in human Caco-2 cells transfected with human BCRP at 3 uM preincubated with novobiocin for 15 to 30 mins followed by compound addition and measured after 60 to 90 mins by LC-MS/MS analysis; type: ADME, cell-based; conditions: time 60-90 min
BCRP [16] = assay: Apparent permeability across basolateral to apical side in human Caco-2 cells transfected with human BCRP at 3 uM measured after 60 to 90 mins by LC-MS/MS analysis; type: ADME, cell-based; conditions: time 60-90 min
BCRP [17] = assay: Efflux ratio of apparent permeability across basolateral to apical side over apical to basolateral side in human Caco-2 cells transfected with human BCRP at 3 uM preincubated with novobiocin for 15 to 30 mins followed by compound addition and measured after 60 to 90 mins by LC-MS/MS analysis; type: ADME, cell-based; conditions: time 60-90 min
[18] = target: T2, Calcium/calmodulin-dependent protein kinase type II subunit alpha (Homo sapiens, UniProt Q9UQM7); assay: Binding affinity to recombinant wildtype human CAMKIIalpha hub domain (345 to 475 residues) extracted from Escherichia coli BL21 (DE3) cells assessed as dissociation constant by SPR analysis
T2 sequence (Q9UQM7 whole entry, the tested form may be a part): as the sequence (P11275 whole entry) above, with N324S counted along it

[19] = target: T2, Calcium/calmodulin-dependent protein kinase type II subunit alpha; assay: Induction of thermal stabilization of recombinant wildtype human CAMKIIalpha hub domain (345 to 475 residues) extracted from Escherichia coli BL21 (DE3) cells by differential scanning fluorimetric analysis; conditions: dose 0.625-320 µM
[20] = Drug concentration in mouse plasma at 10 mg/kg, ip measured after 0.5 hrs by LC-MS/MS analysis; type: ADME, organism-based
[21] = target: T2, Calcium/calmodulin-dependent protein kinase type II subunit alpha; assay: Induction of thermal stabilization of recombinant wildtype human CAMKIIalpha hub domain (345 to 475 residues) extracted from Escherichia coli BL21 (DE3) cells assessed as change in melting temperature at 0.625 to 320 microM by differential scanning fluorimetric analysis; conditions: dose 0.625-320 µM
BCRP [22] = assay: Apparent permeability across apical to basolateral side in human Caco-2 cells transfected with human BCRP at 3 uM preincubated with novobiocin for 15 to 30 mins followed by compound addition and measured after 60 to 90 mins by LC-MS/MS analysis; type: ADME, cell-based; conditions: time 60-90 min
BCRP [23] = assay: Apparent permeability across apical to basolateral side in human Caco-2 cells transfected with human BCRP at 3 uM measured after 60 to 90 mins by LC-MS/MS analysis; type: ADME, cell-based; conditions: time 60-90 min
[24] = Ratio of unbound brain to plasma drug concentration in mouse at 10 mg/kg, ip measured after 0.5 hrs by LC-MS/MS analysis; type: ADME, organism-based; conditions: brain and plasma, read-out: K(p,uu,brain)
BCRP [25] = assay: Efflux ratio of apparent permeability across basolateral to apical side over apical to basolateral side in human Caco-2 cells transfected with human BCRP at 3 uM measured after 60 to 90 mins by LC-MS/MS analysis; type: ADME, cell-based; conditions: time 60-90 min
[26] = Drug concentration in mouse brain at 10 mg/kg, ip measured after 0.5 hrs by LC-MS/MS analysis; type: ADME, organism-based; conditions: read-out: Ct
[27] = Drug concentration in mouse brain at 10 mg/kg, po measured after 0.5 hrs by LC-MS/MS analysis; type: ADME, organism-based; conditions: read-out: Ct
[28] = Ratio of unbound brain to plasma drug concentration in mouse at 10 mg/kg, po measured after 0.5 hrs by LC-MS/MS analysis; type: ADME, organism-based; conditions: brain and plasma, read-out: K(p,uu,brain)
[29] = Ratio of drug concentration in mouse brain to plasma at 10 mg/kg, po measured after 0.5 hrs by LC-MS/MS analysis; type: ADME, organism-based; conditions: brain and plasma, read-out: BPR
[30] = Prodrug conversion in mouse assessed as ratio of unbound 2-(2,6-dichlorophenyl)thiazole-4-carboxylic acid concentration in brain to plasma at 10 mg/kg, po measured after 0.5 hrs by LC-MS/MS analysis; type: ADME, organism-based
[31] = Prodrug conversion in mouse plasma assessed as 2-(2,6-dichlorophenyl)thiazole-4-carboxylic acid concentration at 10 mg/kg, po measured after 0.5 hrs by LC-MS/MS analysis; type: ADME, organism-based; conditions: in vivo
[32] = Prodrug conversion in mouse assessed as ratio of 2-(2,6-dichlorophenyl)thiazole-4-carboxylic acid concentration in brain to plasma at 10 mg/kg, po measured after 0.5 hrs by LC-MS/MS analysis; type: ADME, organism-based
[33] = Prodrug conversion in mouse brain assessed as 2-(2,6-dichlorophenyl)thiazole-4-carboxylic acid concentration at 10 mg/kg, po measured after 0.5 hrs by LC-MS/MS analysis; type: ADME, organism-based; conditions: in vivo
[34] = Drug concentration in mouse plasma at 10 mg/kg, po measured after 0.5 hrs by LC-MS/MS analysis; type: ADME, organism-based

Ki ([1]; read-out: Ki): 1.4 µM
Compound: O=C(O)c1csc(Cc2ccccc2)n1

Ki ([2]; read-out: Ki): 0.18 µM
Ki ([2]; read-out: pKi (converted)): 0.158 µM
Compound: O=C(O)c1csc(-c2ccccc2Br)n1

Ki ([1]; read-out: Ki): 1 µM
Compound: O=C(O)c1csc(-c2ccccc2Cl)n1

Drug metabolism [3]: metabolite_notdetected
remaining at 0 min, 20 µM [4]: 100%
Drug metabolism [5]: metabolite_notdetected
remaining at 1 h, 20 µM [6]: 65%
remaining at 0.25 h, 10 µM [7]: 84%
remaining at 0.5 h, 20 µM [8]: 75%
Ki ([1]; read-out: Ki): > 100 µM
remaining at 0.5 h, 10 µM [9]: 75%
Stability [10]: Unstable
remaining at 2 h, 20 µM [11]: 63%
remaining at 0 min, 10 µM [12]: 100%
remaining at 1 h, 10 µM [13]: 59%
Compound: CC(C)(C)COC(=O)c1csc(-c2c(Cl)cccc2Cl)n1

Ki ([1]; read-out: Ki): > 100 µM
Compound: OC1(c2csc(-c3c(Cl)cccc3Cl)n2)COC1

Ki ([1]; read-out: Ki): 9.9 µM
Compound: COc1cccc(-c2nc(C(=O)O)cs2)c1

Ki ([1]; read-out: Ki): 0.16 µM
Compound: O=C(O)c1csc(-c2c(I)cccc2I)n1

Ki ([1]; read-out: Ki): 3.1 µM
Compound: O=C(O)Cc1csc(-c2ccccc2)n1

Ki ([1]; read-out: Ki): > 100 µM
Compound: OC1(c2nc(-c3c(Cl)cccc3Cl)cs2)COC1

remaining at 0 min, 20 µM [4]: 100%
Kp at 0.5 h [14]: 0.02
Papp B→A at 3 µM (BCRP [15]): 11.4 ×10⁻⁶ cm/s
Papp B→A at 3 µM (BCRP [16]): 11.3 ×10⁻⁶ cm/s
efflux ratio at 3 µM (BCRP [17]): 1.05
remaining at 1 h, 20 µM [6]: 98%
remaining at 0.25 h, 10 µM [7]: 101%
remaining at 0.5 h, 20 µM [8]: 101%
Kd [18]: 0.759 µM
Ki ([1]; read-out: Ki): 0.062 µM
Activity [19]: Dose-dependent-effect
concentration at 0.5 h [20]: 18600 ng/mL
ΔTm [21]: 21.4 °C
remaining at 0.5 h, 10 µM [9]: 104%
Papp A→B at 3 µM (BCRP [22]): 10.9 ×10⁻⁶ cm/s
Papp A→B at 3 µM (BCRP [23]): 10.7 ×10⁻⁶ cm/s
Kp uu at 0.5 h [24]: 0.1
efflux ratio at 3 µM (BCRP [25]): 1.06
Stability [10]: Stable
concentration at 0.5 h [26]: 350 ng/g
remaining at 2 h, 20 µM [11]: 94%
remaining at 0 min, 10 µM [12]: 100%
remaining at 1 h, 10 µM [13]: 100%
Compound: O=C(O)c1csc(-c2c(Cl)cccc2Cl)n1

Ki ([1]; read-out: Ki): > 10 µM
Compound: O=C(O)Cc1csc(Cc2ccccc2)n1

Ki ([2]; read-out: Ki): > 100 µM
Compound: O=C(Nc1nc(C(=O)O)cs1)c1ccccc1

Ki ([1]; read-out: Ki): 44.8 µM
Compound: Clc1cccc(Cl)c1-c1nc(Cc2nnn[nH]2)cs1

Ki ([1]; read-out: Ki): 60.2 µM
Compound: O=C(O)c1csc(-c2ccncc2)n1

Ki ([1]; read-out: Ki): 0.71 µM
Compound: O=C(O)c1csc(-c2c(F)cccc2F)n1

Compound: O=C(O)C1=CC(O)CC1 (stereo not drawn)
Ki ([1]; read-out: pKi (converted)): 0.126 µM

Ki ([1]; read-out: Ki): > 100 µM
Compound: O=C(O)c1cnc(-c2ccccc2)s1

Ki ([1]; read-out: Ki): 2 µM
Compound: O=C(O)Cc1csc(-c2ccccc2Cl)n1

Ki ([1]; read-out: Ki): 12.6 µM
Compound: O=C(O)c1csc(-c2ccc(O)cc2)n1

Ki ([2]; read-out: Ki): 3.1 µM
Compound: COc1ccccc1-c1nc(C(=O)O)cs1

Ki ([1]; read-out: Ki): 5.4 µM
Compound: CCc1ccc(-c2nc(C(=O)O)cs2)cc1

concentration at 0.5 h [27]: 627 ng/g
remaining at 0 min, 20 µM [4]: 100%
Kp uu at 0.5 h [28]: 0.49
remaining at 1 h, 20 µM [6]: 74%
Kp at 0.5 h [29]: 4.7
K(p,uu,brain) [30]: 0.13
Cp [31]: 2154 ng/mL
remaining at 0.25 h, 10 µM [7]: 70%
remaining at 0.5 h, 20 µM [8]: 78%
Ki ([1]; read-out: Ki): 56.4 µM
remaining at 0.5 h, 10 µM [9]: 53%
BPR [32]: 0.03
Stability [10]: Unstable
Ct [33]: 54 ng/g
remaining at 2 h, 20 µM [11]: 70%
remaining at 0 min, 10 µM [12]: 100%
remaining at 1 h, 10 µM [13]: 45%
concentration at 0.5 h [34]: 137 ng/mL
Compound: CC(C)(C)OC(=O)c1csc(-c2c(Cl)cccc2Cl)n1
